Patent US11360080B2, “AhR-ROR-γt complex as a biomarker and therapeutic target for autoimmune disease and IL-17A-associated disease” (NATIONAL HEALTH RESEARCH INSTITUTES, priority 2018, dated 2022)

Key:
AhR-RORγt complex = biological target: T1, AhR-RORγt complex (UniProt P35869+P51450); assay: FRET assay of HEK293T cells co-transfected with CFP-AhR, YFP-RORγt and IKKβ plasmids; type: cell-based; conditions: IKKβ
T1 construct: expressed in transfected cells; host or cells: HEK293T
Experimental: (A) Luciferase activity of NF-κB-driven reporter assays in stable GLK-transfected CHO-K1 cells that were treated with or without the GLK inhibitor C1 (verteporfin) under the indicated concentration. The fold changes are presented relative to the value of vector control. (B) Recombinant proteins of GLK kinase domain plus recombinant proteins of GST-tagged kinase-dead PKCθ (K409W) were subjected to in vitro kinase assays in the presence or absence of the GLK inhibitor C1 (verteporfin). Means±SD of are shown. *, P value<0.05; **, P value<0.01 (two-tailed Student's t-test). (C) The AhR-RORγt complex was inhibited by the GLK inhibitor. […] (D) Quantification of the PLA signals of (C). […]
FRET signal in live cells was detected by EnVision 2104 Multilabel Plate Reader (Perkin Elmer). The reaction was excited by light passing through a 430-nm filter (with 8 nm bandwidth), and the intensity of emitted fluorescence passing through a 530-nm filter (with 8 nm bandwidth) was recorded. If the protein-protein pair is in close proximity (1-10 nm), a 530-nm signal will be detected. The FRET efficiency was calculated using the following equation: FRET efficiency=((FRET−CFP×a−YFP×b)/YFP)×100%, where FRET, CFP, and YFP correspond to the fluorescent intensities acquired through FRET, CFP, and YFP filter sets, respectively; a and b are the donor emission and acceptor excitation crosstalk ratios, respectively. […]

murine primary T cells = assay: ELISA of cytokines in supernatants of murine primary T cells stimulated with anti-CD3/CD28; type: cell-based, mouse; conditions: 5 μM or 10 μM for 3 days
Experimental: Means±SD are shown, (b) ELISA of IL-17A in supernatants of human T cells. T cells were stimulated with anti-CD3/CD28 and treated with C1 (verteporfin) (1 μM or 5 μM) or C2 (1 μM or 5 μM) for 3 days. HC, healthy control; SLE, systemic lupus erythematosus; RA, rheumatoid arthritis; AS, ankylosing spondylitis; PsA, psoriatic arthritis; PSS, primary Sjögren's syndrome. Means±SD are shown. C1 denotes verteporfin; C2 denotes alexidine dihydrochloride.
We further studied whether IL-17A production is abolished by the inhibitors of GLK-induced AhR-RORγt complex in human and murine T cells. We first tested the inhibitor experiment using murine T cells stimulated with TCR signaling (anti-CD3 plus anti-CD28 antibodies). […] Next, we studied the blocking effect of IL-17 production by the treatment of C1 (verteporfin) or C2 (alexidine dihydrochloride) using human peripheral blood T cells. […] Taken together, GLK inhibitors (verteporfin and alexidine dihydrochloride) inhibit GLK-induced AhR-RORγt complex and IL-17A production in human autoimmune patient T cells, as well as the disease severity of autoimmune animal models. Thus, GLK, GLK signaling, or GLK-induced AhR-RORγt complex can be a promising therapeutic target for autoimmune diseases.

T1 sequence (P35869 11-848): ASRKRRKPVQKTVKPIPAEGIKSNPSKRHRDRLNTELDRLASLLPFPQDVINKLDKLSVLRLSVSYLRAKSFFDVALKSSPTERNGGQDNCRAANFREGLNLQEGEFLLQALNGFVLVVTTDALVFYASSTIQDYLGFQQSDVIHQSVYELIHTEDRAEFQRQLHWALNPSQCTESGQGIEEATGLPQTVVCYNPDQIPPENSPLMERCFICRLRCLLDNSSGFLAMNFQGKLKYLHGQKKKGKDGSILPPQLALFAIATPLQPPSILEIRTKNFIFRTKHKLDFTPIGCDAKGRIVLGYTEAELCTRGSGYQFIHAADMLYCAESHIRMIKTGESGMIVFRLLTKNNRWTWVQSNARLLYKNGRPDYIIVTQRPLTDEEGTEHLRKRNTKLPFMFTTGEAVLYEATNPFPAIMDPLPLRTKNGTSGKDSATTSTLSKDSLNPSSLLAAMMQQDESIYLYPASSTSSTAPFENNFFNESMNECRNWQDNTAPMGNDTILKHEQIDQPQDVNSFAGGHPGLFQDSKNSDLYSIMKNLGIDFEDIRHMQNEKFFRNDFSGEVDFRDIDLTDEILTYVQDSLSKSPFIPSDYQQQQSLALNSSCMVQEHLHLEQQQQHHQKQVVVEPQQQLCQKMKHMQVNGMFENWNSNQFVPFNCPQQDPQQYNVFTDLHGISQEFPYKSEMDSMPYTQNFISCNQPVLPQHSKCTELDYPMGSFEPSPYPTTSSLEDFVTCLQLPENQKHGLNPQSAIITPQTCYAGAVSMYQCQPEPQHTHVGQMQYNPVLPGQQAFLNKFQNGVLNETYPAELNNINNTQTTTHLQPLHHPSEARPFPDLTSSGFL
T1 sequence (P51450 1-495 isoform P51450-2 T331K): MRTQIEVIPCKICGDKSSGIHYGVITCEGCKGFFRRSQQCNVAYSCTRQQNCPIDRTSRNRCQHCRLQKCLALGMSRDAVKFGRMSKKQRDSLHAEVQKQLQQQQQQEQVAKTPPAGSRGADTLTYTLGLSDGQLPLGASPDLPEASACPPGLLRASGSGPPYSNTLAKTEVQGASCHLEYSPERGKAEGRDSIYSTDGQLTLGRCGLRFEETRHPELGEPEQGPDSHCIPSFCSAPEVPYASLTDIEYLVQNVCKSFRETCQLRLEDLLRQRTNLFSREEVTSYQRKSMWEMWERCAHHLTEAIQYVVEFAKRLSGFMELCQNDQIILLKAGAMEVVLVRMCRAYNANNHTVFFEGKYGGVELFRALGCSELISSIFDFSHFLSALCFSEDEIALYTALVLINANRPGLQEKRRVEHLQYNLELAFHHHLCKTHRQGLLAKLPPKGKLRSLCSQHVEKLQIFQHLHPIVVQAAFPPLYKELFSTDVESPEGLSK

Question: For `C=Cc1c(C)c2cc3nc(cc4[nH]c(cc5nc(cc1[nH]2)C(C)=C5CCC(=O)O)c(CCC(=O)OC)c4C)[C@@]1(C)C3=CC=C(C(=O)OC)[C@H]1C(=O)OC` [C1, verteporfin], which “FRET signals AhR-RORγt” value (AhR-RORγt complex) is on record?
Answer: inhibited

Question: What about the “TCR-induced IFN-γ level” value (murine primary T cells) of the same molecule?
Answer: partially reduced

Question: And the “TCR-induced IL-17A production” value (murine primary T cells)?
Answer: drastically abolished

Question: What about the “TCR-induced IL-17B level” value (murine primary T cells) of the same molecule?
Answer: not decreased

Question: And the “TCR-induced IL-17E level” value (murine primary T cells)?
Answer: not decreased

Question: And the “TCR-induced IL-17F level” value (murine primary T cells)?
Answer: not decreased

Question: What about the “TCR-induced TNF-α level” value (murine primary T cells) of the same molecule?
Answer: partially reduced
